How the values were obtained:
[1] = molecular target: LIM domain kinase 2 (Homo sapiens) (UniProt P53671); settings: at 10 µM
[2] = molecular target: Casein kinase I isoform gamma-3 (Homo sapiens) (UniProt Q9Y6M4); test: Selectivity interaction (KinomeScan (DiscoverX)) EUB0001049a CSNK1G3; settings: at 1 µM
[3] = molecular target: Mitogen-activated protein kinase 8 (Homo sapiens, UniProt P45983); test: Selectivity interaction (KinomeScan (DiscoverX)) EUB0001049a MAPK8; settings: at 1 µM
[4] = molecular target: T1, Tyrosine-protein kinase receptor TYRO3 (Homo sapiens) (UniProt Q06418); test: Selectivity interaction (Ambit KINOMEscan and KiNATiv profiling in Jurkat cells) EUB0000090b TYRO3; assay type: cell-based; settings: at 1 µM
T1 sequence (whole entry): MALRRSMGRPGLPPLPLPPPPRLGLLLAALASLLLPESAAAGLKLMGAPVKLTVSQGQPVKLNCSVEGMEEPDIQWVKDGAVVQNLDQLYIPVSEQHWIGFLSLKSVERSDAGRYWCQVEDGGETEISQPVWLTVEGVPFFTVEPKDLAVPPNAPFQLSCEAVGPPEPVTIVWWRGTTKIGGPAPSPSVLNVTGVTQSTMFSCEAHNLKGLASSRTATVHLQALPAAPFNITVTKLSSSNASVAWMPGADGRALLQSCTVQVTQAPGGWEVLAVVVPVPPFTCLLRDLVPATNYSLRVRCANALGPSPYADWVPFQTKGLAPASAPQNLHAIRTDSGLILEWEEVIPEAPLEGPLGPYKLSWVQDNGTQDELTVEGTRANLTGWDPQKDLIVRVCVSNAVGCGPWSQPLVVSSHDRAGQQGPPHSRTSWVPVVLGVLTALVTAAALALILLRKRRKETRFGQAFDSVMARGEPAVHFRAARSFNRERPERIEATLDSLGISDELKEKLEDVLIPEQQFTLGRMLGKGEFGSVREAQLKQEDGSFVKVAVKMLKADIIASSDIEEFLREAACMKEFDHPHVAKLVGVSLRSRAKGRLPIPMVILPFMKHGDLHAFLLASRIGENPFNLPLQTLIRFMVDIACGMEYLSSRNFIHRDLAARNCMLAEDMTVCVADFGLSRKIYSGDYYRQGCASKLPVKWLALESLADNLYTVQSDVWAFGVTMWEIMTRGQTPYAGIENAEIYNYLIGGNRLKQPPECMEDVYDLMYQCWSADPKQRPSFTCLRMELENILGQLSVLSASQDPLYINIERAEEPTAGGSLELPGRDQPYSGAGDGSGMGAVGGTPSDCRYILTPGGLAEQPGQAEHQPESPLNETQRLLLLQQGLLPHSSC

[5] = molecular target: Cyclin-dependent kinase 17 (Homo sapiens) (UniProt Q00537); test: Selectivity interaction (ActivX KiNativ screen (kinase selectivity in THP-1 cell lysates)) EUB0000639a CDK17; assay type: subcellular; settings: lysate, at 0.04 µM
[6] = test system: Hepatocyte growth factor receptor (Homo sapiens), P08581 [M1250T]; test: (§1) Selectivity interaction (KinomeScan (DiscoverX)) EUB0000695a MET; settings: at 100 nM
[7] = test system: Hepatocyte growth factor receptor (Homo sapiens), P08581 [Y1235D]; test: as §1; settings: at 100 nM
[8] = molecular target: Hepatocyte growth factor receptor (Homo sapiens, UniProt P08581); test: as §1; settings: at 100 nM
[9] = molecular target: Mitogen-activated protein kinase kinase kinase 10 (Homo sapiens) (UniProt Q02779); test: Selectivity interaction (ProQinase) EUB0000171b MAP3K10
[10] = molecular target: T2, Serine/threonine-protein kinase LATS2 (Homo sapiens) (UniProt Q9NRM7); test: Selectivity interaction (KinomeScan (DiscoverX)) EUB0000655a LATS2; settings: at 10 µM
T2 sequence (whole entry): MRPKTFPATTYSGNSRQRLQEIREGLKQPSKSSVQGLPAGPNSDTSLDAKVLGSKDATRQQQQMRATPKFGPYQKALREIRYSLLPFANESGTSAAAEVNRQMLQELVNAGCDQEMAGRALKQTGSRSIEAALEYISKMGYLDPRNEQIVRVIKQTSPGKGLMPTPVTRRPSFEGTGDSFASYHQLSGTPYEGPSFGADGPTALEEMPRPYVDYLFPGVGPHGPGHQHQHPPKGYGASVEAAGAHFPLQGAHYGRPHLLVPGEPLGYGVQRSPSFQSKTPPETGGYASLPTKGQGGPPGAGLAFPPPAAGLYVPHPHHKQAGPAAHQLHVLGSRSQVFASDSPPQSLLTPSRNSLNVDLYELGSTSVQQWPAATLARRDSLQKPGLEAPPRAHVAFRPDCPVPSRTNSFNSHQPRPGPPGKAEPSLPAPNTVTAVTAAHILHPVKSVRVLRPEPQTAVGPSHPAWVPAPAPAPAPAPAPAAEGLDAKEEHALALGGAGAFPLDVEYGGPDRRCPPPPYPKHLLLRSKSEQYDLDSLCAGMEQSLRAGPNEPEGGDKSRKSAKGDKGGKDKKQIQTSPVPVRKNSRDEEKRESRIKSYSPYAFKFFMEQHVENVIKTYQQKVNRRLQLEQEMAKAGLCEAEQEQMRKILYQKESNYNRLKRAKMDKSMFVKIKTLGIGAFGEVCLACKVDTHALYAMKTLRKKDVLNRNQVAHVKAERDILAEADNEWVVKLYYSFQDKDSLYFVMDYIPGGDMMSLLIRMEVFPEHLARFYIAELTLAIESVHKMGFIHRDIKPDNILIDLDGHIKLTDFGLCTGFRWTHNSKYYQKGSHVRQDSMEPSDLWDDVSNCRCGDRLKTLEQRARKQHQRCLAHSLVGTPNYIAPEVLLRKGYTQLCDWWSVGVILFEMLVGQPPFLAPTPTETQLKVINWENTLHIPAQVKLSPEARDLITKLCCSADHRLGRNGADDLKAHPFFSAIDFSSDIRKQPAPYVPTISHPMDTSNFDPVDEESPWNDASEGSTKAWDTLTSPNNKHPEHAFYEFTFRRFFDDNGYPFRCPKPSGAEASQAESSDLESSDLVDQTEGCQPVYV

[11] = molecular target: Tyrosine-protein kinase JAK1 (Homo sapiens, UniProt P23458); test: Selectivity interaction (KinomeScan (DiscoverX)) EUB0000607a JAK1; settings: at 10 µM
[12] = molecular target: Calcium/calmodulin-dependent protein kinase type II subunit delta (Homo sapiens) (UniProt Q13557); test: Selectivity interaction (Kinase panel (DSF assay)) EUB0001558a CAMK2D
Chain of Calcium/calmodulin-dependent protein kinase type II subunit delta (Homo sapiens) (Q13557 whole entry): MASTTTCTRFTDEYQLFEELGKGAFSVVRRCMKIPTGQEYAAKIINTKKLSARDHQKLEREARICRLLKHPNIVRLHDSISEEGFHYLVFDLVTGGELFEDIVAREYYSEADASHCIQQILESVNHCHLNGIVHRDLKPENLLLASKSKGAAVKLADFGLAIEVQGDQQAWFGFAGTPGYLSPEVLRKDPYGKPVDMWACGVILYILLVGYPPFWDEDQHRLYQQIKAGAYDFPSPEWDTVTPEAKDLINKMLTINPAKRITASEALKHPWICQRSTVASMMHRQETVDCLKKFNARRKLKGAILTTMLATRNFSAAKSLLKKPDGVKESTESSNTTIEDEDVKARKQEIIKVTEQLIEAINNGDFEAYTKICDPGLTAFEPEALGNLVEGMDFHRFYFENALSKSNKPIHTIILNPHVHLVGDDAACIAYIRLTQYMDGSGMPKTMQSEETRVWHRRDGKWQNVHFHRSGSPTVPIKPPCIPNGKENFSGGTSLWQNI

Chain of Mitogen-activated protein kinase kinase kinase 10 (Homo sapiens) (Q02779 whole entry, looked up): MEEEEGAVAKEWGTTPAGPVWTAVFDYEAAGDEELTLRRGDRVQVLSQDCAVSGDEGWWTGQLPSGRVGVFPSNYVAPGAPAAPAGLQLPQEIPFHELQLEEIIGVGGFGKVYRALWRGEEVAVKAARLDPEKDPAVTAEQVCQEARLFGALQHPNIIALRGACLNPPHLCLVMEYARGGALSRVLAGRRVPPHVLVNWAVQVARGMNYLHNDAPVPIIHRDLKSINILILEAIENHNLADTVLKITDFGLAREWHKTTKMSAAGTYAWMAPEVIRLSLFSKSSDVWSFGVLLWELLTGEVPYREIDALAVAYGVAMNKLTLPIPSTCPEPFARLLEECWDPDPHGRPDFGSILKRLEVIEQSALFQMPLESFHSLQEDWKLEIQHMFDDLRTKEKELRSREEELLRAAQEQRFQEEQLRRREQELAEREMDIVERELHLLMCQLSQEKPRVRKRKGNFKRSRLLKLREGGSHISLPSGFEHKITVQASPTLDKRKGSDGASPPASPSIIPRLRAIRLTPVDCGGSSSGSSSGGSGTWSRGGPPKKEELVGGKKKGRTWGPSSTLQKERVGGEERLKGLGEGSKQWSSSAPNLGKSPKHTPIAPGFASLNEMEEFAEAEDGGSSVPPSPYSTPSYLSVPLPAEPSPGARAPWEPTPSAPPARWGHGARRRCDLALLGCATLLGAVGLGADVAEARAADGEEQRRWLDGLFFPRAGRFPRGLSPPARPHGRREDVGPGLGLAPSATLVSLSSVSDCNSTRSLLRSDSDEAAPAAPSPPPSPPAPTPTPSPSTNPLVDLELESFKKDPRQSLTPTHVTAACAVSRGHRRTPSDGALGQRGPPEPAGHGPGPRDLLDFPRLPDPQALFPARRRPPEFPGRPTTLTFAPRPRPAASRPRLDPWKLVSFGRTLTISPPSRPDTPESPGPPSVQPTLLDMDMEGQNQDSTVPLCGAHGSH
Chain of Mitogen-activated protein kinase 8 (P45983 whole entry): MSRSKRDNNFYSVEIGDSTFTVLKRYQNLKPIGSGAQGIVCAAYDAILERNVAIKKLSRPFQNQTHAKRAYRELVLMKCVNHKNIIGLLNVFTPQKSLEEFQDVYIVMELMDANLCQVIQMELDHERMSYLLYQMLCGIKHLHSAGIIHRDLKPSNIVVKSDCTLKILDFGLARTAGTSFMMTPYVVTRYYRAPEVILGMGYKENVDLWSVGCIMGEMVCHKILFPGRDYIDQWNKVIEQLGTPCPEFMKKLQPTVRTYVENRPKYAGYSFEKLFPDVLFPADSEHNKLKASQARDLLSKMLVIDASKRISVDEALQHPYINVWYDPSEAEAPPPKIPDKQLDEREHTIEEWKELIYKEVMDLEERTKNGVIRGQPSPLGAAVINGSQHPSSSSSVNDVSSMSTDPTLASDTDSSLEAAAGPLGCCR
Chain of Cyclin-dependent kinase 17 (Homo sapiens) (Q00537 whole entry, looked up): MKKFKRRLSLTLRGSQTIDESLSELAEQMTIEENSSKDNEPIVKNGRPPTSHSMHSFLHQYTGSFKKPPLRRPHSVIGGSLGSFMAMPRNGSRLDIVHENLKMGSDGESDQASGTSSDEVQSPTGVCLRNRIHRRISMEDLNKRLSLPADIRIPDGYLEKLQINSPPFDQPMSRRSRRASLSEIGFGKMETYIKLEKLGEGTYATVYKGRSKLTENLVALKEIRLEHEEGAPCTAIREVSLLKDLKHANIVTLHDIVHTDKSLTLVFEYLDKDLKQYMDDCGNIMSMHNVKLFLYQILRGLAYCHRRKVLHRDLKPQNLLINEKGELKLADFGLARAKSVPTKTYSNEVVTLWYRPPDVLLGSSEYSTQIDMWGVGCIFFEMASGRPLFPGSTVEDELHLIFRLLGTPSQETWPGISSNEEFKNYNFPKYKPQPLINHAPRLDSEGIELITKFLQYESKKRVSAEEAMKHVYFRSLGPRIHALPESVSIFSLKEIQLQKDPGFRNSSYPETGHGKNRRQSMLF
Chain of LIM domain kinase 2 (Homo sapiens) (P53671 whole entry, looked up, the tested form may be a part, canonical isoform): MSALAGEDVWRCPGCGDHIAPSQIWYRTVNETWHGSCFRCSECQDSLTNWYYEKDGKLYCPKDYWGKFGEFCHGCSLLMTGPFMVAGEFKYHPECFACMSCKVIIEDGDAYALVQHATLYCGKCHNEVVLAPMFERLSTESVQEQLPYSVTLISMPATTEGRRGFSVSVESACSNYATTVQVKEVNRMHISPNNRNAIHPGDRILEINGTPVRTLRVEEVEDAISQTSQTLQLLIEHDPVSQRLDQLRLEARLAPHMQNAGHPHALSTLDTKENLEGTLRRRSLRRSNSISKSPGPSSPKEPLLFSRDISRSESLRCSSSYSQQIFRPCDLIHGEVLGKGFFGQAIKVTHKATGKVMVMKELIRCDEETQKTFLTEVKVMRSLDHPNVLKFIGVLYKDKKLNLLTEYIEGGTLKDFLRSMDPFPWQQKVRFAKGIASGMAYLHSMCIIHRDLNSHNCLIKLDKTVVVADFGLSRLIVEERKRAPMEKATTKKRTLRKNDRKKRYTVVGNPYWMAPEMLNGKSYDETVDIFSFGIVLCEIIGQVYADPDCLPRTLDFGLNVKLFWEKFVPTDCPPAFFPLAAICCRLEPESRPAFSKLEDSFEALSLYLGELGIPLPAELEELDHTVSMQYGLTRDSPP
Chain of Hepatocyte growth factor receptor (P08581 whole entry): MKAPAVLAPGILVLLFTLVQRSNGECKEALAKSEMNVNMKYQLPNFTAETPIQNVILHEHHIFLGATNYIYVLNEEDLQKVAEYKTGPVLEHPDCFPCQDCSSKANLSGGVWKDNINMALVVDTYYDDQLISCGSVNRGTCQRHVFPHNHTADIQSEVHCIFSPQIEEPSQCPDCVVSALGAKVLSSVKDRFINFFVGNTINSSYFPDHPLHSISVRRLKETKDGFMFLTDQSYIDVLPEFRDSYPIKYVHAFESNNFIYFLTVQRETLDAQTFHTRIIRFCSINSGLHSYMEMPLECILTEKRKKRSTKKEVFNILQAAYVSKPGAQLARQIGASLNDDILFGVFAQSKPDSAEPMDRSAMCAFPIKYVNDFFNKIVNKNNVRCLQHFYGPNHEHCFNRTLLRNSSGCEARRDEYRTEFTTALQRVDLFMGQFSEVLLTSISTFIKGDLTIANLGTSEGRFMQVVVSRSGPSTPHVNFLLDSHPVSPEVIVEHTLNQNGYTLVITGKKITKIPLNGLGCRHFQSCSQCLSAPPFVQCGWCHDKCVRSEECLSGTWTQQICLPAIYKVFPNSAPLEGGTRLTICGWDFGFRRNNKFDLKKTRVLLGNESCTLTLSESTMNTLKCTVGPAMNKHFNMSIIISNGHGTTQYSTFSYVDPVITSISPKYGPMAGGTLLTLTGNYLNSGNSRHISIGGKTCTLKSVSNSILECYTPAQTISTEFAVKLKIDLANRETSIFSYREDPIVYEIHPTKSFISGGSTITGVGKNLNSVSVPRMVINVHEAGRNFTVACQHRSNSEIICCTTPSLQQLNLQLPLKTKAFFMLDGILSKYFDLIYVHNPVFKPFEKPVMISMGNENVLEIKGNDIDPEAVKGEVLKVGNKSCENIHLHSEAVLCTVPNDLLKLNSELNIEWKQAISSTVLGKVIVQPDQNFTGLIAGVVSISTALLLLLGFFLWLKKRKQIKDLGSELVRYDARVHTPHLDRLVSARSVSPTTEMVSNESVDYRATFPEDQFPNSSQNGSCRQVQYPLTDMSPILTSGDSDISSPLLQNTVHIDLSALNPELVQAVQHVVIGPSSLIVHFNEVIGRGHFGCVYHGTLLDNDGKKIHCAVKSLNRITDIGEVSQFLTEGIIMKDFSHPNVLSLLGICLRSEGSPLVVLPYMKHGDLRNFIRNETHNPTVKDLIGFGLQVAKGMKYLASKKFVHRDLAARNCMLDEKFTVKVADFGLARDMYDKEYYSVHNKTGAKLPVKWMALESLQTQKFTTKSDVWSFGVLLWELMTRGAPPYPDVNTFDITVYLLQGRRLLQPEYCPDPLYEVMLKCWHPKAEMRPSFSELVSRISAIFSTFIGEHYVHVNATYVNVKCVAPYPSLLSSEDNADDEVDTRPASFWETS
Chain of Casein kinase I isoform gamma-3 (Homo sapiens) (Q9Y6M4 whole entry, looked up, canonical isoform): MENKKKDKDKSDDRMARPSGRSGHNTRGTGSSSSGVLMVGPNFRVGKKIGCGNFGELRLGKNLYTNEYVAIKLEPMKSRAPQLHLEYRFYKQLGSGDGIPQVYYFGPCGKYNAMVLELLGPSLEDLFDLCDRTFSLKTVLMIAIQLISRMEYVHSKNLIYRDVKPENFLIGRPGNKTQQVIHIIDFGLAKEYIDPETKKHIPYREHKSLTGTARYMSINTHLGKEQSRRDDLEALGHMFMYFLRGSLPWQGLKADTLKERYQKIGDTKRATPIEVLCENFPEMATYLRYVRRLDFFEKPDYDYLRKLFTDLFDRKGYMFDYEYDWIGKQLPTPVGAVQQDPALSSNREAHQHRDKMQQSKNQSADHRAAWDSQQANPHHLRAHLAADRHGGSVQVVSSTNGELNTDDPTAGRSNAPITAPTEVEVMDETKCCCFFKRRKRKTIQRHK

Cc1cc([C@@H](C)Nc2ccccc2C(=O)O)c2nc(N3CCOCC3)cc(=O)n2c1 [AZD-6482]
% of control [1]: 100%

COc1cc(Nc2nc(C)cc(-c3cnn4nc(OC)ccc34)n2)cc(C(F)(F)F)c1
% of control [2]: 98%
% of control [3]: 88%

CN(C)C/C=C/C(=O)Nc1ccc(C(=O)N2CCCC(Nc3ncc(Cl)c(-c4c[nH]c5ccccc45)n3)C2)cc1 (stereo not drawn)
% of control [4]: 95%

CC[C@@H]1[C@H](F)C(=O)N[C@@H]1COc1nccc2cc(C(N)=O)c(OC)cc12 [ZIMLOVISERTIB]
% of inhibition [5]: 1.7%

Cc1cc(F)c(C(=O)Nc2cccc(-c3nncn3C(C)C)n2)cc1-n1cnc(C2CC2)c1
% of control [6]: 100%
% of control [7]: 100%
% of control [8]: 97%

C=CC(=O)Nc1cccc(C(=O)Nc2ccc(Nc3cc(-c4[nH]c(SC)nc4C)ccn3)cc2)c1
% of control ([9]; at 1 µM): 27%
% of control ([9]; at 5 µM): 4%

CN(C)CCOc1ccc(-c2nc(-c3ccncc3)c(-c3ccc4c(c3)CC/C4=N\O)[nH]2)cc1
% of control [10]: 45%

CNC(=O)Nc1ccc(-c2nc(N3CC4CCC(C3)O4)c3cnn(C4CCC5(CC4)OCCO5)c3n2)cc1
% of control [11]: 82%

CC(C)(O)[C@H](F)CN1Cc2cc(NC(=O)c3cnn4cccnc34)c(N3CCOCC3)cc2C1=O
dTM [12]: 0.3 K
